From patent US12427134B2, “Methods of reducing the risk of cardiovascular events in a subject with atrial fibrillation and/or atrial flutter” (priority 2019, dated 2025)

Test system: hypertriglyceridemic patients with cardiovascular disease or at high risk for cardiovascular disease
Test: REDUCE-IT: subgroup analyses of the primary and key secondary endpoints
Type: in vivo, human
Details: for Primary endpoint, patients with event (%) / Time to primary endpoint, HR (95% CI) AMR101/Placebo: ITT
Experimental: Exploratory Subgroup Analyses: Analyses of the effects that patients off study drug and withdrawn from study have on the primary endpoint were performed. Subgroup analyses of the primary and key secondary endpoints were performed as described for the primary endpoint. For each subgroup, Kaplan-Meier estimates, the log-rank test stratified by stratification factors used at randomization (except where the subgroup was a stratification factor), and HRs and CIs from the Cox proportional hazards model as specified for the primary efficacy endpoint, were summarized by treatment group. Demographic, disease, treatment, and baseline lipid and lipoproteins parameters were explored.
Demographic parameters included: Gender; age at baseline (<65 years and ≥65 years); race (white and nonwhite, or any other subset with at least 10% of the total number of patients); geographical region (Westernized, Eastern European, and Asia Pacific countries); and baseline ezetimibe use (yes/no).
Disease parameters included: CV risk category; the presence/absence of diabetes at baseline; and renal dysfunction at baseline (estimated glomerular filtration rate [eGFR]<60 mL/min/1.73 m^2) using the Chronic Kidney Disease Epidemiology Collaboration (CKD-EPI) equation as follows: eGFR=141×min(Scr/κ,1)^α×max(Scr/κ,1)^[…]^Age×1.018 [if female]×1.159 [if black]
Treatment Parameters included: Statin intensity at baseline (statin type and regimen); and statin intensity categories as defined in ACC/AHA Cholesterol Guidelines (Stone 2013) and patient's 10-year CV Risk Score (Goff 2013).
Baseline Lipid and Lipoprotein Parameter included: LDL-C (by tertile); HDL-C (by tertile, and tertile by gender); TG (by tertile, and tertile by gender); RLP-C (by tertile); TG ≥150 mg/dL and TG <150 mg/dL; TG ≥200 mg/dL and TG <200 mg/dL; TG ≥median, TG <median; combined highest tertile for TG and lowest tertile for HDL-C; gender-specific highest tertile for TG and lowest tertile for HDL-C; TG ≥200 mg/dL with HDL-C ≤35 mg/dL; hsCRP (≤3 mg/L and >3 mg/L) and by gender; hsCRP (≤2 mg/L and >2 mg/L) and by gender; Apo B (by tertile); non-HDL-C (by tertile); baseline hemoglobin A1c (Hb1c) value (<6.5%, ≥6.5%); baseline PAD; and baseline TG levels ≥150 mg/dL with high-density lipoprotein cholesterol (HDL-C) levels ≤40 mg/dL for males and ≤50 mg/dL for females.
A Cox proportional hazard (PH) model as mentioned above but additionally with baseline TG as a covariate were fitted to the data at each interim. Diagnostic plots for the PH assumption were evaluated. The consistency of the treatment effects in subgroups was assessed for the primary and key secondary efficacy endpoints. For each subgroup variable, a Cox PH model with terms for treatment, stratification factors (with the exception of those subgroup variables related to the stratification factors, i.e., CV risk category), subgroup, and treatment-by-subgroup interaction were performed. The main treatment effect was tested with this model. P-values for testing the interaction terms <0.15 were considered significant. Results were presented in a Forest plot.
Subgroup analyses of the primary and key secondary endpoints were performed as described for the primary endpoint. For each subgroup, Kaplan-Meier estimates, the log-rank test stratified by stratification factors used at randomization (except where the subgroup was a stratification factor), and HRs and CIs from the Cox proportional hazards model as specified for the primary efficacy endpoint, were summarized by treatment group. All subgroup analyses were conducted for the ITT, mITT and PP populations.
Of note regarding the following subgroup analyses, per study design, subgroup analyses are underpowered to detect statistically significant results within each individual subgroup, particularly when a subgroup represents less than 50% of the enrolled population, and when a subgroup has low event rates. […]

[1] = Overall (Males and Females), TG Lowest Tertile (≥81.25 to ≤190 mg/dL)
[2] = Overall (Males and Females), TG Middle Tertile (>190 to ≤250 mg/dL)
[3] = RLP-C (Derived) Highest Tertile (>34.30 to ≤105.86 mg/dL)
[4] = RLP-C (Derived) Lowest Tertile (≥11.89 to ≤28.09 mg/dL)
[5] = RLP-C (Derived) Middle Tertile (>28.09 to ≤34.30 mg/dL)
[6] = TG Lower Half (≥81.25 and ≤216 mg/dL)
[7] = TG Upper Half (>216 and ≤1401 mg/dL)
[8] = above or at the median baseline TG (>216 mg/dL)
[9] = baseline TG <150 mg/dL and HDL-C >40 mg/dL (males) or >50 mg/dL (females)
[10] = baseline TG ≥150 mg/dL and HDL-C ≤40 mg/dL (males) or ≤50 mg/dL (females)
[11] = below the median baseline TG (≥81.25 and ≤216 mg/dL)
[12] = females, middle tertile baseline TG (>186 to ≤241.5 mg/dL)
[13] = highest tertile baseline HDL-C (>43.5 to ≤107.5 mg/dL)
[14] = highest tertile baseline RLP-C (>34.30 to ≤105.86 mg/dL)
[15] = highest tertile baseline TG (>250 to ≤401 mg/dL)
[16] = highest tertile baseline TG and lowest tertile baseline HDL-C
[17] = history of peripheral artery disease
[18] = lowest tertile baseline HDL-C (≥17 to ≤36.5 mg/dL)
[19] = lowest tertile baseline RLP-C (≥11.89 to ≤28.09 mg/dL)
[20] = lowest tertile baseline TG (≥81.25 to ≤190 mg/dL)
[21] = middle tertile baseline HDL-C (>36.5 to ≤43.5 mg/dL)
[22] = middle tertile baseline RLP-C (>28.09 to ≤34.30 mg/dL)
[23] = middle tertile baseline TG (>190 to ≤250 mg/dL)
[24] = not in the highest tertile baseline TG and lowest tertile baseline HDL-C
[25] = primary prevention subgroup (CV risk category 2)
[26] = secondary prevention subgroup (CV risk category 1)
[27] = without atherogenic dyslipidemia
[28] = without history of peripheral artery disease

## CC/C=C\C/C=C\C/C=C\C/C=C\C/C=C\CCCC(=O)OCC [AMR101, eicosapentaenoic acid ethyl ester]
[1]
  Primary endpoint, patients with event (%): 16.9%
  Time to primary endpoint, HR (95% CI) AMR101/Placebo: 0.789
[2]
  Primary endpoint, patients with event (%): 18.0%
  Time to primary endpoint, HR (95% CI) AMR101/Placebo: 0.804
PAD History - No
  Primary endpoint, patients with event (%): 16.3%
  Time to primary endpoint, HR (95% CI) AMR101/Placebo: 0.744
PAD History - Yes
  Primary endpoint, patients with event (%): 26.6%
  Time to primary endpoint, HR (95% CI) AMR101/Placebo: 0.803
[3]
  Primary endpoint, patients with event (%): 17.8%
  Time to primary endpoint, HR (95% CI) AMR101/Placebo: 0.715
[4]
  Primary endpoint, patients with event (%): 17.1%
  Time to primary endpoint, HR (95% CI) AMR101/Placebo: 0.806
[5]
  Primary endpoint, patients with event (%): 16.8%
  Time to primary endpoint, HR (95% CI) AMR101/Placebo: 0.750
[6]
  Primary endpoint, patients with event (%): 17.3%
  Time to primary endpoint, HR (95% CI) AMR101/Placebo: 0.803
[7]
  Primary endpoint, patients with event (%): 17.2%
  Time to primary endpoint, HR (95% CI) AMR101/Placebo: 0.709
US patients
  Primary endpoint event, patients: 18.2%
  Primary endpoint, HR: 0.687
[8]
  Primary endpoint event, patients: 17.2%
  Primary endpoint, HR: 0.709
Atherogenic dyslipidemia (baseline TG ≥200 mg/dL and HDL-C ≤35 mg/dL)
  Primary endpoint event, patients: 18.1%
Baseline HbA1c <6.5%
  Primary endpoint event, patients: 16.5%
  Primary endpoint, HR: 0.793
Baseline HbA1c ≥6.5%
  Primary endpoint event, patients: 18.1%
  Primary endpoint, HR: 0.701
[9]
  Primary endpoint event, patients: 18.2%
  Primary endpoint, HR: 0.842
[10]
  Primary endpoint event, patients: 16.5%
  Primary endpoint, HR: 0.691
Baseline hsCRP >2 mg/L
  Primary endpoint event, patients: 19.2%
  Primary endpoint, HR: 0.813
Baseline hsCRP ≤2 mg/L
  Primary endpoint event, patients: 15.0%
  Primary endpoint, HR: 0.680
[11]
  Primary endpoint event, patients: 17.3%
  Primary endpoint, HR: 0.803
[12]
  Primary endpoint event, patients: 15.1%
  Primary endpoint, HR: 1.077
[13]
  Primary endpoint event, patients: 15.9%
  Primary endpoint, HR: 0.812
[14]
  Primary endpoint event, patients: 17.8%
  Primary endpoint, HR: 0.715
[15]
  Primary endpoint event, patients: 16.9%
  Primary endpoint, HR: 0.675
[16]
  Primary endpoint event, patients: 19.1%
  Primary endpoint, HR: 0.670
[17]
  Primary endpoint event, patients: 26.6%
  Primary endpoint, HR: 0.803
[18]
  Primary endpoint event, patients: 18.1%
  Primary endpoint, HR: 0.667
[19]
  Primary endpoint event, patients: 17.1%
  Primary endpoint, HR: 0.806
[20]
  Primary endpoint event, patients: 16.9%
  Primary endpoint, HR: 0.789
[21]
  Primary endpoint event, patients: 17.6%
  Primary endpoint, HR: 0.800
[22]
  Primary endpoint event, patients: 16.8%
  Primary endpoint, HR: 0.750
[23]
  Primary endpoint event, patients: 18.0%
  Primary endpoint, HR: 0.804
non-US patients
  Primary endpoint event, patients: 16.7%
  Primary endpoint, HR: 0.803
non-white patients
  Key secondary endpoint event, patients: 10.3%
  Key secondary endpoint, HR: 0.554
[24]
  Primary endpoint event, patients: 16.3%
  Primary endpoint, HR: 0.679
Patients on statins of low intensity at baseline
  Key secondary endpoint, point estimate of the HR: 1.200
[25]
  Primary endpoint event, patients: 12.2%
  Primary endpoint, HR: 0.876
[26]
  Primary endpoint event, patients: 19.3%
  Primary endpoint, HR: 0.726
White patients
  Key secondary endpoint event, patients: 11.3%
  Key secondary endpoint, HR: 0.758
[27]
  Primary endpoint event, patients: 17.0%
  Primary endpoint, HR: 0.791
[28]
  Primary endpoint event, patients: 16.3%
  Primary endpoint, HR: 0.744
≥65 years subgroup
  Key secondary endpoint event, patients: 13.9%
  Key secondary endpoint, HR: 0.824
  Primary endpoint event, patients: 20.6%
  Primary endpoint, HR: 0.873
